Where two headings read alike, the source gives them in different places.
Legend:
recombinant Hsp90α = molecular target: T1, recombinant Hsp90α (Homo sapiens, UniProt P07900); experiment: Surface plasmon resonance binding to immobilized Hsp90α
T1 construct: purchased Assay Designs (Ann Arbor, MI, USA)
Protocol: SPR analyses were carried out according to our previously published procedures, [23]. Briefly, SPR analyses were performed using a Biacore 3000 optical biosensor equipped with research−grade CM5 sensor chips (GE Healthcare). Using this platform, two separate recombinant Hsp90α surfaces, a BSA surface and one unmodified reference surface were prepared for simultaneous analyses. Proteins (100 µg mL^−1 in 10 mM CH3COONa, pH 5.0) were immobilized on individual sensor chip surfaces at a flow rate of 5 µL min^−1 using standard amine−coupling protocols to obtain densities of 8–12 kRU. Polyphenols, as well as 17-AAG and hardwickiic acid (HA), were dissolved in 100% DMSO to obtain 4 mM solutions, and diluted 1∶200 (v/v) in PBS (10 mM NaH2PO4, 150 mM NaCl, pH 7.4) to a final DMSO concentration of 0.5%. […] Binding experiments were performed at 25°C, using a flow rate of 50 µL min^−1, with 60 s monitoring of association and 300 s monitoring of dissociation. Simple interactions were suitably fitted to a single−site bimolecular interaction model (A+B = AB), yielding a single K D. Sensorgram elaborations were performed using the BIAevaluation software provided by GE Healthcare.
Putative interactions of different plant-derived phenolic compounds with Hsp90α were evaluated by a SPR-based approach.

HeLa cells [1] = experiment: MTT cell viability, HeLa; type: cell-based, human; details: 24 h
Protocol: (§1) To ensure logarithmic growth, cells were subcultured every two days. As control cells, human peripheral blood mononuclear cells (PBMC) were isolated from buffy coats of healthy donors (kindly provided by the Blood Center of the Hospital of Battipaglia, Salerno, Italy) by using standard Ficoll−Hypaque gradients. […] Proliferation of PBMC was induced by phytohemagglutinin (PHA) (10 µg mL^−1). Tumor and PBMC cells were treated with different concentrations of geraniin or 17-AAG to evaluate their cytotoxic effects. Stock solutions of geraniin (50 mM in DMSO) and 17-AAG (10 mM in DMSO) were stored a −20°C in the dark and diluted just before addition to the sterile culture medium. In all the experiments, the final concentration of DMSO was 0.10% (v/v).
(§2) Jurkat (2×10^4/well) and HeLa (5000/well) cells were seeded in triplicate in 96 well−plates and incubated for 24 h in the absence or presence of different concentrations of geraniin (between 0,5 µM to 50 µM) or 17-AAG (between 0,5 nM to 10 µM).
(§3) The number of viable cells was determined by using a [3–4,5-dimethyldiazol-2-yl]-2,5-diphenyl tetrazolium bromide (MTT, Sigma-Aldrich) conversion assay, according to the method described by Mosmann. […] The absorbance was measured with a microplate reader (Titertek multiskan MCC7340, LabSystems, Vienna, VA, USA) equipped with a 620 nm filter. […]

HeLa cells [2] = experiment: Cell cycle and hypodiploidy by flow cytometry (PI), HeLa; type: cell-based, human; details: 24 h, geraniin 5 µM, 17-AAG 0.2 µM
Protocol: (§4) Cell DNA content was measured by propidium iodide (PI) incorporation into permeabilized cells, as described by Nicoletti et al.. Briefly, the cells were harvested after geraniin or 17-AAG treatments were washed with cold PBS and incubated with a PI solution (0.1% sodium citrate, 0.1% Triton X-100 and 50 µg mL^−1 of prodium iodide, Sigma-Aldrich, 10 µg/ml Rnase A) for 30 min at room temperature. Data from 10.000 events per sample were collected by a FACScalibur flow cytometer (Becton Dickinson, San José, CA) and cellular debris was excluded from analysis by raising the forward scatter threshold. The percentage of cells in the sub G0/G1 phase, apoptotic fraction, was quantified using CellQuest software (Becton Dickinson). The distribution of cells in G0/G1, S, G2/M phases was determined using ModFit LT cell cycle analysis software (Becton Dickinson). Results were expressed as a mean ± SD of three experiments performed in triplicate.
(§5) Figure 6 Effects of geraniin and 17-AAG on cell cycle progression. Percentage of cell cycle stages was analyzed by flow cytometry, (A) PI-stained viable Jurkat cells treated with DMSO, 0.7 µM geraniin or 10 µM 17-AAG for 24 h.

[3] = test system: PHA-stimulated proliferating PBMC; experiment: Hypodiploidy/necrosis by flow cytometry, PHA-stimulated PBMC; type: cell-based, human; details: untreated cells 1.5±0.8%
Protocol: Jurkat and HeLa (epithelial carcinoma) cells, obtained from Cell Bank in GMP-IST (Genova, Italy) were maintained in RPMI 1640 medium or Dulbecco’s modified Eagle medium (DMEM), respectively, supplemented with 10% (v/v) FBS, 2 mM L−glutamine and antibiotics (100 U mL^−1 penicillin, 100 µg mL^−1 streptomycin) purchased from Invitrogen (Carslbad, CA, USA), at 37°C in humidified atmosphere with 5% CO2. To ensure logarithmic growth, cells were subcultured every two days. As control cells, human peripheral blood mononuclear cells (PBMC) were isolated from buffy coats of healthy donors (kindly provided by the Blood Center of the Hospital of Battipaglia, Salerno, Italy) by using standard Ficoll−Hypaque gradients. Freshly isolated PBMC contained 92.8±3.1% live cells. Proliferation of PBMC was induced by phytohemagglutinin (PHA) (10 µg mL^−1). […]
Cell DNA content was measured by propidium iodide (PI) incorporation into permeabilized cells, as described by Nicoletti et al.. […] The percentage of cells in the sub G0/G1 phase, apoptotic fraction, was quantified using CellQuest software (Becton Dickinson). The distribution of cells in G0/G1, S, G2/M phases was determined using ModFit LT cell cycle analysis software (Becton Dickinson). Results were expressed as a mean ± SD of three experiments performed in triplicate.

Jurkat cells [4] = experiment: MTT cell viability, Jurkat; type: cell-based, human; details: 24 h
Protocol: as §1, §2, §3

[5] = test system: PBMC (human Peripheral Blood Mononuclear Cells); experiment: Cytotoxicity in PHA-stimulated proliferating PBMC; type: cell-based; details: 24 h, trypan blue, only at high doses
Protocol: as §1, with “Tumor and PBMC cells were treated with different concentrations of geraniin or 17-AAG to evaluate their cytotoxic effects.” left out
The number of viable cells was determined by using a [3–4,5-dimethyldiazol-2-yl]-2,5-diphenyl tetrazolium bromide (MTT, Sigma-Aldrich) conversion assay, according to the method described by Mosmann. Briefly, following the treatment, 25 µL of MTT (5 mg/mL in PBS) was added and the cells were incubated for additional 3 h at 37°C. Thereafter, cells were lysed and suspended with 100 µL of buffer containing 50% (v/v) N,N-dimethylformamide, 20% SDS (pH 4.5). The absorbance was measured with a microplate reader (Titertek multiskan MCC7340, LabSystems, Vienna, VA, USA) equipped with a 620 nm filter. Cell population growth inhibition was tested by cytometric counting (trypan blu exclusion).

Jurkat cells [6] = experiment: Cell cycle and hypodiploidy by flow cytometry (PI), Jurkat; type: cell-based, human; details: 24 h, geraniin 0.7 µM, 17-AAG 10 µM
Protocol: as §4, §5

[7] = molecular target: T2, Hsp90α chaperone activity (Homo sapiens, UniProt P07900); experiment: Citrate synthase thermal-induced aggregation assay (chaperone activity); type: biochemical; details: 0.075 µM CS, 0.075 µM Hsp90α, 0.3 µM ATP, four-fold molar excess (0.3 µM) compound, 43°C
T2 construct: purchased Assay Designs (Ann Arbor, MI, USA)
Protocol: Chaperone activity was evaluated by monitoring the thermal−induced aggregation of citrate synthase (CS) (0.075 µM), as reported elsewhere, in the absence or presence of a stoichiometric amount of Hsp90α and 0.3 µM ATP, and with or without a four−fold molar excess of each testing compound. Aggregation was initiated by unfolding CS incubating the protein in 40 mM HEPES–KOH, pH 7.5 at 43°C. Aggregation was monitored by measuring light scattering at right angles with the Perkin Elmer LS 55 fluorimeter in stirred and thermostatted quartz cells. Both the emission and excitation wavelengths were set at 500 nm, while the band–pass was 2 nm. Kinetics traces reported are the averages of two separate measurements.
Figure 3 Inhibition of Hsp90α activity. ATPase activity of the chaperone was evaluated in the presence of different concentrations of geraniin, 17-AAG and HA (A). Data are reported as the residual ATPase activity (%) compared to that observed for an untreated sample. Data are the mean of three independent experiments performed in triplicate and were analyzed by t test (HA vs testing compounds): The error bar represents the standard deviation of nine measurements, while * indicates significance at P<0.01. Aggregation kinetics of citrate synthase (CS) at 43°C determined by light scattering (B). […]

[8] = SPR, immobilized Hsp90α, 25°C, single-site bimolecular model, 0.025-1 µM, read-out: KD

With `O=c1c(O)c(-c2ccc(O)cc2)oc2cc(O)cc(O)c12` [Compound 2] the Kd (recombinant Hsp90α; [8]) was 4.83 ± 0.515 µM.
For `O=c1c(O)c(-c2ccc(O)c(O)c2)oc2cc(O)ccc12` [Compound 4], the Kd (recombinant Hsp90α; [8]) was 5.33 ± 0.862 µM.
Compound `COc1cc(-c2oc3cc(O)cc(O)c3c(=O)c2O)ccc1O` [Compound 5] has a Kd (recombinant Hsp90α) of 0.748 ± 0.045 µM.
`CC(=O)Oc1cc(OC(C)=O)c2c(=O)c(OC(C)=O)c(-c3ccc(OC(C)=O)c(OC(C)=O)c3)oc2c1` [Compound 6] gave a Kd (recombinant Hsp90α; [8]) of 2.21 ± 0.351 µM.
In the case of `C=CCNC1=C2C[C@@H](C)C[C@H](OC)[C@H](O)[C@@H](C)/C=C(\C)[C@H](OC(N)=O)[C@@H](OC)/C=C\C=C(/C)C(=O)NC(=CC1=O)C2=O` [Compound 17-AAG, 17-(allylamino)-17-demethoxygeldanamycin, reference compound], the IC50 (HeLa cells [1]) is reported as 0.2 ± 0.3 µM, the cell cycle arrest (HeLa cells [2]) is reported as “G1 and G2/M arrest” and the “percentage of cells with hypodiploid nuclei” value (HeLa cells [2]) is reported as 11.6±0.5%. For the same compound, the levels of hypodiploidy/necrosis [3] was 1.8±0.6%, the IC50 (Jurkat cells [4]) was 9.6 ± 0.15 µM and the “cytotoxic effects in control PBMC” value [5] was “Minimal cytotoxic effects”. The cell cycle arrest (Jurkat cells [6]) was “G1 and G2/M arrest” and the “percentage of cells with hypodiploid nuclei” value (Jurkat cells [6]) was 6.05±0.4%.
`O=c1cc(-c2ccc(O)cc2)oc2cc(O)cc(O)c12` [Compound 19] was tested, and the Kd (recombinant Hsp90α; [8]) was 8.75 ± 0.735 µM.
`O=C1c2c(O)cc(O)cc2OC(c2ccc(O)c(O)c2)C1O` (stereo not shown) [Compound 34] showed a Kd (recombinant Hsp90α; [8]) of 1.82 ± 0.242 µM.
With `C[C@@H]1CC[C@@]2(C)C(C(=O)O)=CCC[C@@H]2[C@@]1(C)CCc1ccoc1` [HA, hardwickiic acid, reference compound] the KD (recombinant Hsp90α; SPR, immobilized Hsp90α, 25°C, single-site bimolecular model, 0.025-1 µM) was “No binding” and the “effect on citrate synthase aggregation kinetics in the presence of Hsp90α” value [7] was “did not perturb the CS+Hsp90α curve”.

From publication PMC3774728, “Identification of the Plant Compound Geraniin as a Novel Hsp90 Inhibitor” (PLoS ONE, 2013)
